These results are taken from US11603349B2, “Anti-fibrotic compounds” (Certa Therapeutics Pty Ltd, priority 2017, dated 2023).

Series [1] is described as follows: Discrete oral pharmacokinetic studies in male Sprague Dawley rats. The format is in vivo, rat. The following applies: male SD rats. The protocol: Discrete oral pharmacokinetic studies were performed for example compounds 116, 107, and 102.
116: 2 mg/kg and 20 mg/kg of 116 were administered as single doses to male Sprague Dawley (SD) rats. 75 mg/kg and 350 mg/kg of 116 were administered daily (5 days) to male Sprague Dawley (SD) rats.
107: 2 mg/kg and 20 mg/kg of 107 were administered as single doses to male Sprague Dawley (SD) rats. 75 mg/kg and 350 mg/kg of 107 were administered daily (5 days) to male Sprague Dawley (SD) rats.
102: 2 mg/kg and 20 mg/kg of 102 were administered as single doses to male Sprague Dawley (SD) rats. 75 mg/kg and 350 mg/kg of 102 were administered daily (5 days) to male Sprague Dawley (SD) rats. […] An increase in plasma concentrations were observed between the 75 and 350 mg/kg/day dosing groups.

Series [2] is described as follows: MTS tetrazolium reduction cell viability assay. As to conditions: rat, rat mesangial cells (1097/IRMC cells), TGF-β1 stimulated, CC50 (μM), vs 1% DMSO vehicle.
Series [3] has as its system rat mesangial cells (1097/IRMC cells). Kind of series: MTS tetrazolium reduction cell viability assay. As to conditions: TGF-β1 stimulated IRMC cells, vs 1% DMSO vehicle.
Series [4] has as its system TGF-β induced [14C]-proline incorporation in rat mesangial cells. Put plainly: [14C]-proline incorporation assay (collagen biosynthesis). The format is cell-based. The following applies: Rattus norvegicus, Mesangial cell, 44 h, inhibition of TGF-β1 (1 ng/ml) induced [14C]-proline incorporation, IRMC cells.
A further series can be described thus: in vitro. The following applies: rat, CC50 (μM).

Where a name gives a salt, the structure may show the parent alone.

`COc1ccc(/C=C/C(=O)Nc2ccccc2C(=O)O)c(OCCN(C)C)c1OC` [Example 116, (E)-2-(3-(2-(2-(dimethylamino)ethoxy)-3,4-dimethoxyphenyl)acrylamido)benzoic Acid]: the “coverage of IC50 relative to a 200 mg/kg/day regime of FT011” value in series [1] (75 mg/kg) and in series [1] (350 mg/kg) was “superior” each time. For the same compound, the “adverse compound related effects” value in series [1] (2 and 20 mg/kg single dose, 75 and 350 mg/kg daily (5 days)) is reported as “No adverse compound related effects were observed”. In addition, the “change in plasma concentrations between the 75 and 350 mg/kg/day dosing groups” value in series [1] (after the initial dose) is on record as “little to no increase”. In series [1] (daily, throughout the 5-day study), the “trough concentrations, 350 mg/kg/day dosing group” value was “lower than expected”. Moreover, the CC50 at 48 h in series [2] amounted to 294 µM. Further, the CC50 in series [3] is more than 300 µM.

On to `COc1cc(C2CC2C(=O)Nc2ccc(C#N)cc2)ccc1C1=CCNCC1` (stereo not shown) [Example 121, N-(4-cyanophenyl)-2-(3-methoxy-4-(1,2,3,6-tetrahydropyridin-4-yl)phenyl)cyclopropane Carboxamide], for which, in series [4], 3.79 µM corresponded to half-maximal inhibition (IC50). The compound further displayed a CC50 at 48 h in “in vitro” of 8.47 µM.

As to `COc1cc(/C=C/C(=O)Nc2ccc(C#N)cc2)ccc1C1=CCNCC1` [Example 139, (E)-N-(4-cyanophenyl)-3-(3-methoxy-4-(1,2,3,6-tetrahydropyridin-4-yl)phenyl)acrylamide trifluoroacetic acid salt], the IC50 in series [4] came out at 5.36 µM. Besides, in “in vitro”, the CC50 at 48 h was 9.03 µM.

`COc1cc(/C=C/C(=O)Nc2ccccc2-n2cnc(C)n2)ccc1C1=CCNCC1` [Example 140, (E)-3-(3-methoxy-4-(1,2,3,6-tetrahydropyridin-4-yl)phenyl)-N-(2-(3-methyl-1H-1,2,4-triazol-l-yl)phenyl)acrylamide trifluoroacetic acid salt] displayed an IC50 in series [4] of 8.47 µM. In the series “in vitro”, the CC50 at 48 h was found to be 36.1 µM.

With `COc1cc(/C=C/C(=O)Nc2ccccc2F)ccc1C1=CCNCC1` [Example 141, (E)-N-(2-fluorophenyl)-3-(3-methoxy-4-(1,2,3,6-tetrahydropyridin-4-yl)phenyl)acrylamide], the IC50 in series [4] was determined as 4.85 µM. The compound further yielded a CC50 at 48 h in “in vitro” of 13.5 µM.

Compound `COc1cc(/C=C/C(=O)n2nc(O)c3ccccc32)ccc1C1=CCNCC1` [Example 142, (E)-1-(3-hydroxy-1H-indazol-1-yl)-3-(3-methoxy-4-(1,2,3,6-tetrahydropyridin-4-yl)phenyl)prop-2-en-1-one] came in with an IC50 in series [4] of 31.7 µM. The CC50 at 48 h in “in vitro” was more than 300 µM.

In series [4], `COc1cc(C2CC2C(=O)Nc2ccc(F)cc2)ccc1C1=CCNCC1` (stereo not shown) [Example 143, N-(4-fluorophenyl)-2-(3-methoxy-4-(1,2,3,6-tetrahydropyridin-4-yl)phenyl)cyclopropane carboxamide trifluoroacetic acid salt] displayed an IC50 of 2.81 µM. In the series “in vitro”, this compound yielded a CC50 at 48 h of 7.2 µM.

In series [4], `COc1cc(C2CC2C(=O)Nc2ccccc2-n2cnc(C)n2)ccc1C1=CCNCC1` (stereo not shown) [Example 144, 2-(3-methoxy-4-(1,2,3,6-tetrahydropyridin-4-yl)phenyl)-N-(2-(3-methyl-1H-1,2,4-triazol-1-yl)phenyl)cyclopropanecarboxamide trifluoroacetic acid salt] gave an IC50 of 20.9 µM. Further, the CC50 at 48 h in the series “in vitro” stood at 81 µM.

Consider `COc1cc(C2CC2C(=O)Nc2ccccc2F)ccc1C1=CCNCC1` (stereo not shown) [Example 145, N-(2-fluorophenyl)-2-(3-methoxy-4-(1,2,3,6-tetrahydropyridin-4-yl)phenyl)cyclopropane carboxamide trifluoroacetic acid], for which, in series [4], the IC50 is 3.71 µM. Besides, the CC50 at 48 h in the series “in vitro” turned out to be 11.7 µM.

Consider `COc1cc(C2CC2C(=O)n2nc(O)c3ccccc32)ccc1C1=CCNCC1` (stereo not shown) [Example 146, (3-hydroxy-1H-indazol-1-yl)(2-(3-methoxy-4-(1,2,3,6-tetrahydropyridin-4-yl)phenyl)cyclopropyl)methanone trifluoroacetic acid salt], for which, in series [4], the IC50 is 19.6 µM. In addition, in the series “in vitro”, the CC50 at 48 h is more than 300 µM.
